How the values were obtained:
[1] = target: Beta-lactamase TEM (Bacteria) (UniProt P62593); experiment: Binding affinity to bacterial wild type Beta-lactamase TEM-1 assessed as change in melting temperature at 100-fold molar excess compound concentration relative to apo-enzymes by SYPRO Orange dye based differential scanning fluorimetry
Bacteria [2] = experiment: Binding affinity to bacterial Beta-lactamase TEM-1 M182T mutant assessed as change in melting temperature at 100-fold molar excess compound concentration relative to apo-enzymes by SYPRO Orange dye based differential scanning fluorimetry
Bacteria [3] = experiment: Binding affinity to bacterial Beta-lactamase TEM-1 M182T/G238S mutant assessed as change in melting temperature at 100-fold molar excess compound concentration relative to apo-enzymes by SYPRO Orange dye based differential scanning fluorimetry
Bacteria [4] = experiment: Binding affinity to bacterial Beta-lactamase TEM-1 D179G mutant assessed as change in melting temperature at 100-fold molar excess compound concentration relative to apo-enzymes by SYPRO Orange dye based differential scanning fluorimetry
Bacteria [5] = experiment: Binding affinity to bacterial Beta-lactamase TEM-1 G238S mutant assessed as change in melting temperature at 100-fold molar excess compound concentration relative to apo-enzymes by SYPRO Orange dye based differential scanning fluorimetry
Bacteria [6] = system: Bacteria

Chain of Beta-lactamase TEM (Bacteria) (P62593 whole entry): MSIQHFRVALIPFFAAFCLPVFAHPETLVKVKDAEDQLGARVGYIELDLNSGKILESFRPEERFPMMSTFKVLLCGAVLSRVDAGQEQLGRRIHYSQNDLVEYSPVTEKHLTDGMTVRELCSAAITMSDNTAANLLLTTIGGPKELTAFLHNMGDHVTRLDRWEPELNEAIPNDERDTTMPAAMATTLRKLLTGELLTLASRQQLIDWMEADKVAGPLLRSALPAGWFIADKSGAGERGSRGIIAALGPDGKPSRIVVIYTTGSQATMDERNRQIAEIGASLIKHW

How did the ΔTm [1] turn out when `CO[C@@]1(NC(=O)[C@H](C(=O)O)c2ccc(O)cc2)C(=O)N2C(C(=O)O)=C(CSc3nnnn3C)CO[C@@H]21` was run?
The ΔTm was -4.5 °C.

And the ΔTm (Bacteria [2])?
The ΔTm was -4.1 °C.

What about the ΔTm (Bacteria [3]) of the same compound?
The ΔTm was -0.7 °C.

And the ΔTm (Bacteria [4])?
The ΔTm was 2.9 °C.

And the ΔTm (Bacteria [5])?
Its ΔTm is -1.9 °C.

And the ΔTm (Bacteria [6])?
The ΔTm was -3.3 °C.
